Test results taken from patent publication US10213451B2, “Methods and compounds for modulating the secretion or expression of adhesion proteins or angiopoietins of cells” (PACIFIC ARROW LIMITED, priority 2004, dated 2019).
≈ marks a conversion by molar mass, not a printed value.

What was measured:
[1] = test system: ES2(ovarian) cells; experiment: MTT assay ES2; format: cell-based, human; conditions: Homo sapiens, ES-2, ES2 cells; read-out: IC50
[2] = test system: (bladder)TB9 cells / HTB-9; experiment: MTT assay bladder cells; format: cell-based, human; conditions: Homo sapiens; (bladder)TB9 cells; read-out: IC50
Method: (§1) Cells. Human cancer cell lines were obtained from American Type Culture Collection: HTB-9 (bladder), HeLa-S3 (cervix), DU145 (prostate), H460 (lung), MCF-7 (breast), K562 (leukocytes), HCT116 (colon), HepG2 (liver), U2OS (bone), T98G (brain), SK-MEL-5 (Skin) and OVCAR-3 (ovary). The cells were grown in following culture media: HeLa-53, DU145, MCF-7, Hep-G2 and T98G are in MEN (Earle's salts); HTB-9, H460, K562 and OVCAR-3 in RPMI-1640; HCT-116 and U2OS in McCoy-5A. They are supplemented with 10% fetal calf serum, glutamine and antibiotics, and incubated in an incubator with 5% CO2 humidified at 37° C.
(§2) MTT Assay. The procedure for MTT assay followed the method described by Carmichael et al. (1987) with modifications. The cells were seeded into a 96-well plate at concentration of 10,000/well for HTB-9, HeLa, H460, HCT116, T98G and OVCAR-3), 15,000/well for DU145, MCF-7, HepG2 and U2OS), and 40,000/well for K562 for 24 hours before drug-treatment. The cells were then exposed to the drugs for 48 hours (72 hours for HepG2 and U2OS, and 96 hours for MCF-7). After the drug-treatment, MTT (0.5 mg/mL) was added to cultures and incubated for an hour. The formazan (product of the reduction of tetrazolium by viable cells) formed and was dissolved with DMSO and the O.D. at 490 nm, and was measured by an ELISA reader. The MTT level of the cells before drug-treatment was also measured (T0). The % cell-growth (% G) is calculated as: % G=(TD−T0/TC−T0)×100(1), where TC or TD represents O.D. readings of control or drug-treated cells. When T0>TD, then the cytotoxicity (LC) expressed as % of the control is calculated as: % LC=(TD−T0/T0)×100(2).

[3] = test system: (lung)H460 cells; experiment: MTT assay H460; format: cell-based; conditions: Homo sapiens, NCI-H460
Method: as §1
(§3) MTT Assay. The procedure for MTT assay followed the method described by Carmichael et al. (1987) with modifications. […] The formazan (product of the reduction of tetrazolium by viable cells) formed and was dissolved with DMSO and the O.D. at 490 nm, and was measured by an ELISA reader. The MTT level of the cells before drug-treatment was also measured (T0). The % cell-growth (% G) is calculated as: % G=(TD−T0/TC−T0)×100(1), where TC or TD represents O.D. readings of control or drug-treated cells. When T0>TD, then the cytotoxicity (LC) expressed as % of the control is calculated as: % LC=(TD−T0/T0)×100(2).

[4] = test system: (Prostate) DU145; experiment: MTT assay DU145; format: cell-based, human; conditions: Homo sapiens, DU-145, read-out: IC50
Method: as §1, §3

[5] = test system: (Liver) HepG2; experiment: MTT assay HepG2; format: cell-based, human; conditions: Homo sapiens, read-out: IC50
Method: as §1, §3

[6] = test system: (brain) T98G; experiment: MTT assay T98G; format: cell-based; conditions: Homo sapiens
Method: as §1, §3

[7] = test system: (Skin) SK-MELS; experiment: MTT assay SK-MEL-5; format: cell-based, human; conditions: Homo sapiens, SK-MEL-5, read-out: IC50
Method: as §1, §3

[8] = test system: (Breast)MCF7; experiment: MTT assay MCF7; format: cell-based, human; conditions: Homo sapiens, read-out: IC50
Method: as §1, §3

[9] = test system: Fibronectin secretion from ES2 cells; experiment: Fibronectin secretion (Western blot), ES2 cells; format: cell-based, human; conditions: for % inhibition of Fibronectin secretion: ES2 cells, 80 ug/ml
Method: Inhibition of Fibronectin secretion is physiological and the determination of its quantity is based on the following criteria: • 1. Fibronectin is secreted from viable cells. Only cell with over 85% viable cells after drug-treatment are employed in these experiments. The viable cells were determined by MTT assay. • 2. For comparison, the immuno-band intensity from each samples are normalized with cell mass. The cell mass was determined by the MTT assay and is assigned as a MTT unit for each cell sample.
Cells: ES2 cells were grew in T-25 flask with RPMI 1640 medium over night before drug-treatment. Drug-treatment: cells cultures were replaced with fresh RPMI medium with Xanifolia-Y (10 ug/ml final concentration) or DMSO (as control) at 0 hour. At 1, 2, 4, 8 and 24 hour, aliquot of culture medium was taken out for Fibronectin determination. Fibronectin was determined by Western blot with monoclonal antibody (SIGMA) specific to human Fibronectin only.
Drug-treatment: cells cultures were replaced with fresh RPMI medium containing Xanifolia-Y (10 ug/ml final concentration) or DMSO (as control) at 0 hour. At 4 hours (A) or 8 hour (B), culture medium was replaced with fresh culture medium without drug. At 2, 4, 8 and 24 hour, aliquot of culture medium was taken out for Fibronectin determination. Fibronectin (FN) was determined by Western blot with monoclonal antibody (SIGMA) specific only to human Fibronectin.
Drug-treatment: cells cultures were replaced with fresh RPMI medium containing Xanifolia-Y (10 ug/ml final concentration) or DMSO (as control) at 0 hour. At 2, and 18 hour, aliquot of culture medium was taken out for Fibronectin determination (Western blot method). Cell viability at 18 hours was determined by MTT assay. Cultures were replaced with RPMI medium with MTT and incubated for an hour. The formation of formazan was dissolved in DMSO and OD at 570 nm was measured.
Cells and Drug-treatment: same as previous experiments. After 7 or 24 hours, aliquot of culture medium was taken out for Fibronectin determination (Western blot method). Cell viability at 24 hours was determined by MTT assay.
Cells: ES2 cells were grew in RPMI 1640 medium over night before drug-treatment. Drug-treatment: cells cultures were replaced with fresh RPMI medium containing DMSO (as control) [D]; Xanifolia-Y (10 ug/ml) [Y]; or Paclitaxel 10 or 50 ng/ml [T10, ro T50]. After 24 hours, aliquot of culture medium was taken out for Fibronectin determination (Western blot method). Cell viability at 24 hours was determined by MTT assay.
The amount of Fibronectin secreted by cells into medium was determined by Western blot assay. The amount of Fibronectin secreted per cells basis was determined by dividing the Western-band intensity with the MTT unit.
Western Blot: Spent culture medium (0.6 ml) was mixed with SDS sample buffer (0.2 ml), boiled for 3 minutes before loading to SDS gel. Samples (60 ul/lane) were applied to a 6% SDS gel and electrophoresis was conducted with 100 volts for 2 hours. Protein was transferred to a nitrocellulose paper electrophoretically (30 min at 100 volts). The Western blot was incubated with the first antibody (mouse anti-FN, specific to human FN, SIGMA F0916) and second antibody (Anti-mouse IgG AP conjugated, Promega S3721). The immunobands were developed with BCIP/NBT color development system (Promega S3771).

[10] = test system: Fibronectin secretion from lung carcinoma cells (H460); experiment: Fibronectin secretion (Western blot), H460 cells; format: cell-based, human; conditions: Homo sapiens, NCI-H460, H460 cells, 10 ug/ml
[11] = test system: Fibronectin secretion from bladder carcinoma cells (HTB-9); experiment: Fibronectin secretion (Western blot), HTB-9 cells; format: cell-based, human; conditions: Homo sapiens, 10 ug/ml
[12] = test system: Fibronectin secretion from liver HepG2 cells; experiment: Fibronectin secretion (Western blot), HepG2 cells; format: cell-based, human
[13] = test system: Fibronectin secretion from brain glioblastoma T98G cells; experiment: Fibronectin secretion (Western blot), T98G cells; format: cell-based, human; conditions: Homo sapiens, T98G, 10 ug/ml
[14] = test system: Fibronectin secretion from skin SK-Mel-5 cells; experiment: Fibronectin secretion (Western blot), SK-MEL-5 cells; format: cell-based, human; conditions: Homo sapiens, 10 ug/ml
[15] = test system: tumor growth; experiment: MTT anticancer activity of Y, X and hydrolysis products (FIG. 4C); format: cell-based
Method: as §2
(A) Alkaline Hydrolysis of Xanifolia-Y: 20 mg of Xanifolia-Y was dissolved in 0.5 mL of 1M NaOH. The solution was incubated in an 80° C. water bath for 4 hours. It was cooled to room temperature before being neutralized with 0.5 mL 1 N HCl (adjusted pH to about 3). The mixture was extracted with 2 mL 1-butanol 3 times. The butanol fractions were collected and lyophilized. The hydrolyzed saponin was further purified with HPLC in a C-18 column eluted with 25% acetonitrile.
(B) Acid Hydrolysis of Xanifolia-Y: 15 mg Xanifolia-Y was dissolved in 1 mL of Methanol. 1 mL of 2N HCl was then added. The mixture was refluxed in an 80° C. water bath for 5 hours. The solution was then neutralized by adding 2 mL of 1N NaOH (to a final pH 3-4). The aglycone was then extracted with ethylacetate 3 mL×3. The extracts were collected and pooled. Further isolation of aglycone (sugar-removed Xanifolia-Y) was achieved by HPLC with isocratic elution of 80% acetonitrile.

[16] = test system: human red blood cells; experiment: Hemolytic activity; format: cell-based; conditions: FIG. 3D
Method: Methods: • Human whole blood was obtained from the Houston Gulf Coast Blood Center. • Red blood cells were isolated by the following method: Human blood (in EDTA) was diluted 1:1 with PBS, underlay with 4 mL of Histopaque-1077 (SIGMA) and was centrifuged at 400 g for 30 min. • Red blood cells (RBC) were collected and washed three times with PBS. • 10% suspensions of RBC were prepared with PBS before use. • 50 μL of RBC suspension was added to 2 mL of saponins with different concentration. • The suspension was mixed by vortexing then left to sit at room temperature for 60 minutes. • The suspension was centrifuged at 3000 rpm for 5 min. Absorbance of the supernatant was measured at 540 nm.

[17] = test system: K562 cells membrane; experiment: EM study of membrane structure; format: cell-based, human; conditions: 20 uM, 60 min
Source text: Xanifolia-Y has a potent hemolytic activity in red blood cells (FIG. 27). To study the effect of Xanifolia-Y on membrane structure, the morphology of cell membrane treated with Xanifolia-Y was examined with EM. […] Solvent DMSO and AKOH-Y (a derivative of Xanifolia-Y without the angeloyl group and it has no activity) served as controls. Cells were negative stained with 1% UAc and subsequently examined with EM.

[18] = test system: Leishmania Major (promastigotes); experiment: Cell growth of Leishmania parasites by MTT assay; format: cell-based; conditions: read-out: IC50, cytotoxic to Leishmania Major (promastigotes)
Method: Method: Leishmania parasites (Leishmania major: MRHO/SU/59/P/LV39) were grown in culture medium in a T75 flask at room temperature. Promastigotes of Leishmania major (approximately 40 million per ml) were used in the experiment. 1.2 ml cell culture was transferred to a well of the 24-wells plate. Saponin Y10 (0.2 ml in medium) with different concentrations (final 6.25-200 ug/ml) was added to culture and cells were grown for 1-5 days at room temperature. At the end of drug-treatment, 150 ul of MTT (5 mg/ml in PBS) was added to each well and incubated for 4 hours. Formazan formed in cells was dissolved with DMSO and the OD at 490 nm was determined by an ELISA reader.

C/C=C(/C)C(=O)O[C@H]1[C@H](OC(=O)/C(C)=C\C)[C@@]23C(CC1(C)C)[C@]1(CCC4[C@@]5(C)CC[C@H](O)C(C)(C)C5CC[C@@]4(C)[C@]1(C)C[C@H]2O)O[C@@H]3O (stereo partly drawn) [ACH-Mb5] gave an IC50 [1] of 8 µg/mL (≈ 11.9 µM), an IC50 [2] of 5.7 µg/mL (≈ 8.5 µM) and an IC50 [3] of 6.5 µg/mL (≈ 9.69 µM). It also gave an IC50 [4] of 6.4 µg/mL (≈ 9.54 µM), an IC50 [5] of 4 µg/mL (≈ 5.96 µM) and an IC50 [6] of 6 µg/mL (≈ 8.94 µM). For the same molecule, the IC50 [7] was 22 µg/mL (≈ 32.8 µM), the IC50 [8] was 13 µg/mL (≈ 19.4 µM) and the inhibition at 10 µg/mL ([9]; Homo sapiens, ES-2, ES2 cells, 10 ug/ml) was 30%. It also gave an inhibition at 10 µg/mL [10] of 22%, an inhibition at 10 µg/mL [11] of 30% and an inhibition at 10 µg/mL ([12]; Homo sapiens, HepG2, HepG2 cells, 10 ug/ml) of 25%. It also gave an inhibition at 10 µg/mL [13] of 35% and an inhibition at 10 µg/mL [14] of 20%.
For CC1(C)CC2C3=CCC4[C@@]5(C)CC[C@H](O[C@@H]6OC(C(=O)O)[C@@H](O)[C@@H](O[C@@H]7O[C@@H](CO)[C@@H](O)C7O)C6O[C@@H]6OC(CO)[C@H](O)[C@@H](O)C6O)C(C)(C)C5CC[C@@]4(C)[C@]3(C)[C@@H](O)[C@@H](O)[C@@]2(CO)[C@@H](O)[C@@H]1O (stereo partly drawn) [AKOH-Y], the “anticancer activity after alkaline hydrolysis” value [15] was “lost anticancer activity”, the “MTT activities of hydrolysed products of compound Y” value ([15]; FIG. 4C, 4D) was “lost MTT activities” and the anticancer activity ([15]; FIG. 4C, even at 120 μg/ml) was “completely abolishes its anticancer activity”. The anticancer activity ([15]; even at 120 ug/ml) was “completely abolishes its anticancer activity”, the “hemolytic activity of hydrolysed products of compound Y” value [16] was “destroyed the hemolytic activity” and the “% inhibition of Fibronectin secretion” value [9] was “no effect”. For the same molecule, the “% inhibition of Fibronectin secretion” value ([9]; listed as AKOH) was “no effect”, the “inhibition effect on Fibronectin secretion” value ([12]; HepG2 cells, 80 ug/ml) was “Minimum or No effect” and the “membrane morphology (EM): patches of pits” value [17] was “not”.
Work on C/C=C(/C)C(=O)O[C@H]1[C@H](OC(=O)/C(C)=C\C)[C@@]2(CO)C(CC1(C)C)C1=CCC3[C@@]4(C)CC[C@H](O[C@@H]5OC(C(=O)O)[C@@H](O)[C@@H](O[C@@H]6O[C@@H](CO)[C@@H](O)C6O)C5O[C@@H]5OC(CO)[C@H](O)[C@@H](O)C5O)C(C)(C)C4CC[C@@]3(C)[C@]1(C)C[C@H]2O (stereo partly drawn) [Xanifolia Y10, 3-O-[β-galactopyranosyl (1→2)]-α-arabinofuranosyl (1→3)-β-glucuronopyranosyl-21, 22-O-diangeloyl-3β, 16α, 21β, 22α, 28-pentahydroxyolean-12-ene] yielded an IC50 [18] of ~15 µg/mL (≈ 13.3 µM).
